# Data: patent publication KR20130112248A, “피라졸로피리미딘 유도체 화합물, 이를 포함하는 산화질소 생성 억제용 조성물 및 뇌신경 질환 예방 및 치료용 약학적 조성물” (한국과학기술연구원, priority 2012, dated 2013)
# Test system: NO production in BV-2 cells [NO 생성; BV-2 세포]
# Experiment: Nitric oxide (NO) quantification (nitrite, Griess reaction) in LPS-activated BV-2 cells
# Format: cell-based
# Conditions: 20 μM, LPS 0.2 ㎍/mL, 24 h co-treatment, nitrite by Griess at 540 nm, 1440 min
row,Structure (SMILES),NO (% of LPS)
1,"CC(Nc1nc([S+](C)[O-])nc2c1cnn2Cc1ccccc1)c1ccccc1 (stereo not drawn) [화합물 22j, 1-벤질-6-(메틸설파이닐)-N-(1-페닐에틸)-1H-피라졸로[3,4-d]피리미딘-4-아민]",70±3.9 % of LPS
2,"COc1cccc(CCn2ncc3c(NCc4ccccc4C)nc(S(C)(=O)=O)nc32)c1 [화합물 23y, N-(2-메틸벤질)-1-(3-메톡시펜에틸)-6-(메틸설포닐)-1H-피라졸로[3,4-d]피리미딘-4-아민]",54±3.5 % of LPS
3,"CCCCNc1nc(NC(C)c2ccccc2)c2cnn(Cc3ccccc3)c2n1 (stereo not drawn) [화합물 24f, 1-벤질-N6-뷰틸-N4-(1-페닐에틸)-1H-피라졸로[3,4-d]피리미딘-4,6-디아민]",9±1 % of LPS

# Same assay, conditions: Mus musculus, BV-2, 24 h, 20 μM, LPS 0.2 ㎍/mL, 24 h co-treatment, nitrite by Griess at 540 nm
row,Structure (SMILES),activity at 20 µM [%]
1,"COc1cccc(CCn2ncc3c(NCc4ccccc4Cl)nc([S+](C)[O-])nc32)c1 (stereo not drawn) [화합물 22k, N-(2-클로로벤질)-1-(3-메톡시펜에틸)-6-(메틸설파이닐)-1H-피라졸로[3,4-d]피리미딘-4-아민]",58 ± 2
2,"COc1cccc(CCn2ncc3c(NCc4ccccc4OC)nc([S+](C)[O-])nc32)c1 (stereo not drawn) [화합물 22l, N-(2-메톡시벤질)-1-(3-메톡시펜에틸)-6-(메틸설파이닐)-1H-피라졸로[3,4-d]피리미딘-4-아민]",60 ± 3.3
3,"COc1cccc(CCn2ncc3c(NCc4ccccc4C)nc(S(C)(=O)=O)nc32)c1 [화합물 22m, N-(2-메틸벤질)-1-(3-메톡시펜에틸)-6-(메틸설포닐)-1H-피라졸로[3,4-d]피리미딘-4-아민]",62 ± 2.8
4,"CCCCNc1nc(S(C)(=O)=O)nc2c1cnn2-c1ccccc1 [화합물 23a, N-뷰틸-6-(메틸설포닐)-1-페닐-1H-피라졸로[3,4-d]피리미딘-4-아민]",40 ± 7.1
5,"CS(=O)(=O)c1nc(NCc2ccccc2Cl)c2cnn(-c3ccccc3)c2n1 [화합물 23b, N-(2-클로로벤질)-6-(메틸설포닐)-1-페닐-1H-피라졸로[3,4-d]피리미딘-4-아민]",93 ± 2
6,"COc1ccccc1CNc1nc(S(C)(=O)=O)nc2c1cnn2-c1ccccc1 [화합물 23c, N-(2-메톡시벤질)-6-(메틸설포닐)-1-페닐-1H-피라졸로[3,4-d]피리미딘-4-아민]",41 ± 2.3
7,"CS(=O)(=O)c1nc(NC(c2ccccc2)c2ccc(Cl)cc2)c2cnn(-c3ccccc3)c2n1 (stereo not drawn) [화합물 23e, N-((4-클로로페닐)(페닐)메틸)-6-(메틸설포닐)-1-페닐-1H-피라졸로[3,4-d]피리미딘-4-아민]",36 ± 3.6
8,"CC(Nc1nc(S(C)(=O)=O)nc2c1cnn2-c1ccccc1)C1CCCCC1 (stereo not drawn) [화합물 23f, N-(1-사이클로헥실에틸)-6-(메틸설포닐)-1-페닐-1H-피라졸로[3,4-d]피리미딘-4-아민]",23 ± 0.6
9,"Cc1ccc(C(C)Nc2nc(S(C)(=O)=O)nc3c2cnn3-c2ccccc2)cc1 (stereo not drawn) [화합물 23g, 6-(메틸설포닐)-1-페닐-N-(1-p-톨릴에틸)-1H-피라졸로[3,4-d]피리미딘-4-아민]",46 ± 3.9
10,"COc1ccc([C@H](C)Nc2nc(S(C)(=O)=O)nc3c2cnn3-c2ccccc2)cc1 [화합물 23h, N-((S)-1-(4-메톡시페닐)에틸)-6-(메틸설포닐)-1-페닐-1H-피라졸로[3,4-d]피리미딘-4-아민]",41 ± 5.7
11,"COc1ccccc1CNc1nc(S(C)(=O)=O)nc2c1cnn2-c1ccc(F)cc1 [화합물 23i, N-(2-메톡시벤질)-1-(4-플루오로페닐)-6-(메틸설포닐)-1H-피라졸로[3,4-d]피리미딘-4-아민]",35 ± 7.3
12,"CS(=O)(=O)c1nc(NCc2ccccc2Cl)c2cnn(-c3ccc(F)cc3)c2n1 [화합물 23j, N-(2-클로로벤질)-1-(4-플루오로페닐)-6-(메틸설포닐)-1H-피라졸로[3,4-d]피리미딘-4-아민]",28 ± 19.3
13,"Cc1ccccc1CNc1nc(S(C)(=O)=O)nc2c1cnn2-c1ccc(F)cc1 [화합물 23k, N-(2-메틸벤질)-1-(4-플루오로페닐)-6-(메틸설포닐)-1H-피라졸로[3,4-d]피리미딘-4-아민]",35 ± 4.6
14,"Cc1ccc(-n2ncc3c(NCc4ccccc4Cl)nc(S(C)(=O)=O)nc32)cc1 [화합물 23l, N-(2-클로로벤질)-6-(메틸설포닐)-1-p-톨릴-1H-피라졸로[3,4-d]피리미딘-4-아민]",30 ± 37.4
15,"COc1ccccc1CNc1nc(S(C)(=O)=O)nc2c1cnn2-c1ccc(C)cc1 [화합물 23m, N-(2-메톡시벤질)-6-(메틸설포닐)-1-p-톨릴-1H-피라졸로[3,4-d]피리미딘-4-아민]",35 ± 3.3
16,"Cc1ccc(-n2ncc3c(NCc4ccccc4C)nc(S(C)(=O)=O)nc32)cc1 [화합물 23n, N-(2-메틸벤질)-1-(4-메틸페닐)-6-(메틸설포닐)-1-p-톨릴-1H-피라졸로[3,4-d]피리미딘-4-아민]",82 ± 3.1
17,"COc1ccc(CNc2nc(S(C)(=O)=O)nc3c2cnn3-c2ccc(C)cc2)cc1 [화합물 23o, N-(4-메톡시벤질)-6-(메틸설포닐)-1-p-톨릴-1H-피라졸로[3,4-d]피리미딘-4-아민]",30 ± 2.4
18,"CC(Nc1nc(S(C)(=O)=O)nc2c1cnn2Cc1ccccc1)c1ccccc1 (stereo not drawn) [화합물 23p, 1-벤질-6-(메틸설포닐)-N-(1-페닐에틸)-1H-피라졸로[3,4-d]피리미딘-4-아민]",40 ± 4.9
19,"CS(=O)(=O)c1nc(NC(c2ccccc2)c2ccc(Cl)cc2)c2cnn(Cc3ccccc3)c2n1 (stereo not drawn) [화합물 23s, 1-벤질-N-((4-클로로페닐)(페닐)메틸)-6-(메틸설포닐)-N-(1-페닐에틸)-1H-피라졸로[3,4-d]피리미딘-4-아민]",54 ± 2.3
20,"CC(Nc1nc(S(C)(=O)=O)nc2c1cnn2Cc1ccccc1)C1CCCCC1 (stereo not drawn) [화합물 23t, 1-벤질-N-(1-사이클로헥실에틸)-6-(메틸설포닐)-1H-피라졸로[3,4-d]피리미딘-4-아민]",42 ± 2.6
21,"Cc1ccc(C(C)Nc2nc(S(C)(=O)=O)nc3c2cnn3Cc2ccccc2)cc1 (stereo not drawn) [화합물 23u, 1-벤질-6-(메틸설포닐)-N-(1-p-톨릴에틸)-1H-피라졸로[3,4-d]피리미딘-4-아민]",120 ± 3.1
22,"COc1ccc([C@H](C)Nc2nc(S(C)(=O)=O)nc3c2cnn3Cc2ccccc2)cc1 [화합물 23v, 1-벤질-N-((S)-1-(4-메톡시페닐)에틸)-6-(메틸설포닐)-1H-피라졸로[3,4-d]피리미딘-4-아민]",59 ± 3
23,"COc1cccc(CCn2ncc3c(NCc4ccccc4Cl)nc(S(C)(=O)=O)nc32)c1 [화합물 23w, N-(2-클로로벤질)-1-(3-메톡시펜에틸)-6-(메틸설포닐)-1H-피라졸로[3,4-d]피리미딘-4-아민]",54 ± 2.3
24,"COc1cccc(CCn2ncc3c(NCc4ccccc4OC)nc(S(C)(=O)=O)nc32)c1 [화합물 23x, N-(2-메톡시벤질)-1-(3-메톡시펜에틸)-6-(메틸설포닐)-1H-피라졸로[3,4-d]피리미딘-4-아민]",35 ± 4.3

row,Structure (SMILES),activity at 20 µM [%]
1,"COc1cccc(CNc2nc(S(C)(=O)=O)nc3c2cnn3CCc2ccccc2OC)c1 [화합물 23z, 1-(2-메톡시펜에틸)-N-(3-메톡시벤질)-6-(메틸설포닐)-1H-피라졸로[3,4-d]피리미딘-4-아민]",51 ± 3.5
2,"COc1ccc(CNc2nc(S(C)(=O)=O)nc3c2cnn3CCc2ccccc2OC)cc1 [화합물 23za, 1-(2-메톡시펜에틸)-N-(4-메톡시벤질)-6-(메틸설포닐)-1H-피라졸로[3,4-d]피리미딘-4-아민]",56 ± 3.6
3,"CC(Nc1nc(NCCO)nc2c1cnn2Cc1ccccc1)c1ccccc1 (stereo not drawn) [화합물 24a, 2-(4-(1-페닐에틸아미노)-1-벤질-1H-피라졸로[3,4-d]피리미딘-6-일아미노)에탄올]",78 ± 1.4
4,"CC(Nc1nc(NCCCO)nc2c1cnn2Cc1ccccc1)c1ccccc1 (stereo not drawn) [화합물 24b, 3-(4-(1-페닐에틸아미노)-1-벤질-1H-피라졸로[3,4-d]피리미딘-6-일아미노)프로판-1-올]",137 ± 5.7
5,"CC(Nc1nc(NCCCCO)nc2c1cnn2Cc1ccccc1)c1ccccc1 (stereo not drawn) [화합물 24c, 4-(4-(1-페닐에틸아미노)-1-벤질-1H-피라졸로[3,4-d]피리미딘-6-일아미노)부탄-1-올]",123 ± 5.4
6,"CC(Nc1nc(NCCOCCO)nc2c1cnn2Cc1ccccc1)c1ccccc1 (stereo not drawn) [화합물 24d, 2-(2-(4-(1-페닐에틸아미노)-1-벤질-1H-피라졸로[3,4-d]피리미딘-6-일아미노)에톡시)에탄올]",130 ± 1.8
7,"CC(Nc1nc(NCc2ccccc2)nc2c1cnn2Cc1ccccc1)c1ccccc1 (stereo not drawn) [화합물 24e, N6,1-디벤질-N4-(1-페닐에틸)-1-벤질-1H-피라졸로[3,4-d]피리미딘-4,6-디아민]",41 ± 16.3
8,"CC(Nc1nc(N(C)C)nc2c1cnn2Cc1ccccc1)c1ccccc1 (stereo not drawn) [화합물 24g, 1-벤질-N6,N6-디메틸-N4-(1-페닐에틸)-1H-피라졸로[3,4-d]피리미딘-4,6-디아민]",63 ± 2.6
9,"COCCNc1nc(NC(C)c2ccccc2)c2cnn(Cc3ccccc3)c2n1 (stereo not drawn) [화합물 24h, 1-벤질-N6-(2-메톡시에틸)-N4-(1-페닐에틸)-1H-피라졸로[3,4-d]피리미딘-4,6-디아민]",44 ± 4.2
10,"C=CCSc1nc(SC)nc2c1cnn2-c1ccccc1 [화합물 25b, 1-페닐-4-알릴티오-6-(메틸티오)피라졸로[3,4-d]피리미딘]",89 ± 6
11,"CSc1nc(NCc2ccccc2)c2cnn(CCO)c2n1 [화합물 27a, 1-(1-하이드록시에틸)-4-벤질아미노-6-(메틸티오)피라졸로[3,4-d]피리미딘]",77 ± 5
12,"CSc1nc(NCc2ccc(F)cc2)c2cnn(CCO)c2n1 [화합물 27b, 1-(1-하이드록시에틸)-4-(4-플루오로벤질)벤질아미노-6-(메틸티오)피라졸로[3,4-d]피리미딘]",73 ± 10
13,"C=CCNc1nc(SC)nc2c1cnn2CCO [화합물 27c, 1-(1-하이드록시에틸)-4-알릴아미노-6-(메틸티오)피라졸로[3,4-d]피리미딘]",98 ± 6
14,"COc1cccc(CNc2nc(SC)nc3c2cnn3CCO)c1 [화합물 27d, 1-(1-하이드록시에틸)-4-(3-메톡시벤질)아미노-6-(메틸티오)피라졸로[3,4-d]피리미딘]",49 ± 12
15,"COc1ccc(CNc2nc(SC)nc3c2cnn3CCO)cc1 [화합물 27e, 1-(1-하이드록시에틸)-4-(4-메톡시벤질)아미노-6-(메틸티오)피라졸로[3,4-d]피리미딘]",56 ± 6
16,"COc1nc(SC)nc2c1cnn2CCO [화합물 27f, 2-(4-메톡시-6-(메틸티오)-1H-피라졸로[3,4-d]피리미딘-1-일)에탄올]",86 ± 3
17,"CSc1nc(NCc2ccccc2C)c2cnn(CCO)c2n1 [화합물 27g, 2-(4-(2-메틸벤질아미노)-6-(메틸티오)-1H-피라졸로[3,4-d]피리미딘-1-일)에탄올]",82 ± 2.5
18,"CSc1nc(NCc2ccccc2Cl)c2cnn(CCO)c2n1 [화합물 27h, 2-(4-(2-클로로벤질아미노)-6-(메틸티오)-1H-피라졸로[3,4-d]피리미딘-1-일)에탄올]",87.4 ± 1.2
19,"COc1ccccc1CNc1nc(SC)nc2c1cnn2CCO [화합물 27i, 2-(4-(2-메톡시벤질아미노)-6-(메틸티오)-1H-피라졸로[3,4-d]피리미딘-1-일)에탄올]",83.5 ± 3.1
20,"CSc1nc(Cl)c2c(-c3ccccc3)nn(-c3ccccc3)c2n1 [화합물 30a, 1-페닐-3-페닐-4-클로로-6-(메틸티오)피라졸로[3,4-d]피리미딘]",13 ± 18
21,"CSc1nc(Cl)c2c(-c3ccccc3)nn(Cc3ccccc3)c2n1 [화합물 30b, 1-벤질-3-페닐-4-클로로-6-(메틸티오)피라졸로[3,4-d]피리미딘]",31 ± 19
22,"CSc1nc(Cl)c2c(-c3ccccc3)nn(C(C)(C)C)c2n1 [화합물 30c, 1-t-뷰틸-3-페닐-4-클로로-6-(메틸티오)피라졸로[3,4-d]피리미딘]",21 ± 22
23,"CSc1nc(NCc2ccccc2)c2c(-c3ccccc3)nn(-c3ccccc3)c2n1 [화합물 31a, 1-페닐-3-페닐-4-벤질아미노-6-(메틸티오)피라졸로[3,4-d]피리미딘]",68 ± 28
24,"CSc1nc(NCc2ccc(F)cc2)c2c(-c3ccccc3)nn(-c3ccccc3)c2n1 [화합물 31c, 1-페닐-3-페닐-4-(4-플루오로벤질)아미노-6-(메틸티오)피라졸로[3,4-d]피리미딘]",100 ± 4
